Measured values: paper PMC6425606 (Journal for Immunotherapy of Cancer, 2019)
Like-named read-outs stand apart in the source and are kept apart here. Blank lines part the entries; values can stand above or below the compound they belong to.

Assays:
[1] = Epacadostat plasma pharmacokinetics (LC-MS/MS, noncompartmental analysis); assay type: in vivo, human
Protocol: SAS® software, version 9.4 (SAS Institute Inc., Cary, NC) was used to generate all tables, graphs, and statistical analyses. […] Descriptive statistics were used to present summaries of continuous and categorical variables. Survival data (OS, PFS) were analyzed using the nonparametric Kaplan-Meier method.
Thirty-six patients were evaluable for pharmacokinetic analyses. […] Steady-state pharmacokinetic observations (Cycle 1, Day 10) are summarized in Additional file 1: Table S3.

[2] = design: method as in PMID 28053021; conditions: epacadostat monotherapy 300 mg BID, patients with advanced malignancies; cited from earlier work
metastatic melanoma = tested on: metastatic melanoma; design: method as in PMID 20525992, PMID 27622997, PMID 26027431; conditions: ipilimumab monotherapy, previously treated patients; cited from earlier work
untreated melanoma = conditions: human, in vivo; cited from earlier work
[3] = epacadostat 25 mg BID (n=10), steady state Cycle 1 Day 10
[4] = epacadostat 50 mg BID continuous (n=13), steady state Cycle 1 Day 10
[5] = epacadostat 50 mg BID intermittent (n=7), steady state Cycle 1 Day 10
[6] = epacadostat 300 mg BID (n=6), steady state Cycle 1 Day 10

Increase of pharmacokinetic exposures (Cmax, AUC0–12h) with dose ([1]; between 25 mg BID and 300 mg BID): dose-proportional
CL/F, geometric mean [1, 3]: 61.3 L/h
CL/F, mean ± SD [1, 3]: 68.9 ± 32.1 L/h
Cmin, mean ± SD [1, 3]: 30 ± 30 nM
CL/F, geometric mean [1, 4]: 64.2 L/h
CL/F, mean ± SD [1, 4]: 69.7 ± 29.8 L/h
Cmin, mean ± SD [1, 4]: 60 ± 50 nM
tmax, median [1, 4]: 2.0 h
Cmax ([1]; epacadostat 50 mg BID continuous (n=13), steady state Cycle 1 Day 10, read-out: Cmax, geometric mean): 400 nM
Cmax ([1]; epacadostat 50 mg BID continuous (n=13), steady state Cycle 1 Day 10, read-out: Cmax, mean ± SD): 500 ± 200 nM
CL/F, geometric mean [1, 5]: 54.4 L/h
CL/F, mean ± SD [1, 5]: 57.6 ± 21.7 L/h
Cmin, mean ± SD [1, 5]: 60 ± 40 nM
Cmax ([1]; epacadostat 50 mg BID intermittent (n=7), steady state Cycle 1 Day 10, read-out: Cmax, geometric mean): 500 nM
CL/F, geometric mean [1, 6]: 74.8 L/h
CL/F, mean ± SD [1, 6]: 77.6 ± 22.2 L/h
Cmin, geometric mean [1, 6]: 200 nM
Cmin, mean ± SD [1, 6]: 300 ± 200 nM
AUC(0-t) ([1]; human, plasma, oral, 25 mg, epacadostat 25 mg BID (n=10), steady state Cycle 1 Day 10, read-out: AUC0–12h, geometric mean): 0.9 µM·h
AUC(0-t) ([1]; human, plasma, oral, 25 mg, epacadostat 25 mg BID (n=10), steady state Cycle 1 Day 10, read-out: AUC0–12h, mean ± SD): 1.1 ± 0.7 µM·h
half-life ([1]; human, plasma, oral, 25 mg, epacadostat 25 mg BID (n=10), steady state Cycle 1 Day 10, read-out: t½, geometric mean (converted)): 7.4 h
half-life ([1]; human, plasma, oral, 25 mg, epacadostat 25 mg BID (n=10), steady state Cycle 1 Day 10, read-out: t½, mean ± SD (converted)): 9.1 ± 6.1 h
AUC(0-t) ([1]; human, plasma, oral, 50 mg, epacadostat 50 mg BID continuous (n=13), steady state Cycle 1 Day 10, read-out: AUC0–12h, geometric mean): 1.8 µM·h
AUC(0-t) ([1]; human, plasma, oral, 50 mg, epacadostat 50 mg BID continuous (n=13), steady state Cycle 1 Day 10, read-out: AUC0–12h, mean ± SD): 1.9 ± 0.8 µM·h
half-life ([1]; human, plasma, oral, 50 mg, epacadostat 50 mg BID continuous (n=13), steady state Cycle 1 Day 10, read-out: t½, geometric mean (converted)): 5.9 h
half-life ([1]; human, plasma, oral, 50 mg, epacadostat 50 mg BID continuous (n=13), steady state Cycle 1 Day 10, read-out: t½, mean ± SD (converted)): 7.1 ± 5.5 h
AUC(0-t) ([1]; human, plasma, oral, 50 mg, epacadostat 50 mg BID intermittent (n=7), steady state Cycle 1 Day 10, read-out: AUC0–12h, geometric mean): 2.1 µM·h
AUC(0-t) ([1]; human, plasma, oral, 50 mg, epacadostat 50 mg BID intermittent (n=7), steady state Cycle 1 Day 10, read-out: AUC0–12h, mean ± SD): 2.2 ± 0.7 µM·h
half-life ([1]; human, plasma, oral, 50 mg, epacadostat 50 mg BID intermittent (n=7), steady state Cycle 1 Day 10, read-out: t½, geometric mean (converted)): 4.5 h
half-life ([1]; human, plasma, oral, 50 mg, epacadostat 50 mg BID intermittent (n=7), steady state Cycle 1 Day 10, read-out: t½, mean ± SD (converted)): 5.1 ± 2.9 h
AUC(0-t) ([1]; human, plasma, oral, 300 mg, epacadostat 300 mg BID (n=6), steady state Cycle 1 Day 10, read-out: AUC0–12h, geometric mean): 9.2 µM·h
AUC(0-t) ([1]; human, plasma, oral, 300 mg, epacadostat 300 mg BID (n=6), steady state Cycle 1 Day 10, read-out: AUC0–12h, mean ± SD): 9.5 ± 3 µM·h
half-life ([1]; human, plasma, oral, 300 mg, epacadostat 300 mg BID (n=6), steady state Cycle 1 Day 10, read-out: t½, geometric mean (converted)): 5.4 h
half-life ([1]; human, plasma, oral, 300 mg, epacadostat 300 mg BID (n=6), steady state Cycle 1 Day 10, read-out: t½, mean ± SD (converted)): 6.2 ± 3.5 h
half-life ([1]; human, plasma, po, repeat oral doses of 25 mg BID, 50 mg BID, 50 mg BID intermittent, 300 mg BID, read-out: Mean terminal elimination half-life (t½)): 5 to 9 h
Tmax ([1]; human, plasma, repeat oral doses of 25 mg BID, 50 mg BID, 50 mg BID intermittent, 300 mg BID, read-out: Median time of maximum observed concentration (tmax)): ~2 h
Compound: NS(=O)(=O)NCCNc1nonc1C(=NO)Nc1ccc(F)c(Br)c1 [epacadostat]
Geometric mean AUC [2]: 9.8 µM·h

Compound: ipilimumab: anti-CTLA-4 antibody, immune checkpoint inhibitor
Overall response rate (metastatic melanoma): 11%
Patients with grade 3/4 treatment-emergent AEs (untreated melanoma): 56%
Rate of irAEs (grade 3/4) (untreated melanoma): 19%
